From patent US6358885B1, “Substituted phenylheterocyclic herbicides” (Mississippi State University, priority 1992, dated 2002)

Experiments:
Assay in all cases: Test G preemergence/postemergence greenhouse plant response rating 0 to 100
annual bluegrass = format: in vivo, Poa annua; conditions: 0 to 100 scale
Summary of the method: (§1)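 Pre- and postemergence treatments used compound in non-phytotoxic solvent on potted greenhouse plants grown from seed, rhizome or plant part. Postemergence plants were at the 2–4 leaf stage; damage was assessed by eye versus untreated pots after 13–21 days.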

dallisgrass = format: in vivo, Paspalum dilatatum; conditions: 0 to 100 scale
Summary of the method: as §1

common ragweed = format: in vivo, Ambrosia elatior; conditions: 0 to 100 scale
Summary of the method: as §1

pitted morningglory = format: in vivo, Ipomoea lacunosa; conditions: 0 to 100 scale
Summary of the method: as §1

guineagrass = format: in vivo, Panicum maximum; conditions: 0 to 100 scale
Summary of the method: as §1

purple nutsedge = format: in vivo, Cyperus rotundus; conditions: Rate 125 g/ha, 0 to 100 scale
Summary of the method: as §1

smooth crabgrass = format: in vivo, Digitaria ischaemum; conditions: 0 to 100 scale
Summary of the method: as §1

goosegrass = format: in vivo, Eleusine indica; conditions: 0 to 100 scale
Summary of the method: as §1

yellow nutsedge = format: in vivo, Cyperus esculentus; conditions: Rate 125 g/ha, 0 to 100 scale
Summary of the method: as §1

broadleaf signalgrass = format: in vivo, Brachiaria plantaginea; conditions: 0 to 100 scale
Summary of the method: as §1

common purslane = format: in vivo, Portulaca oleracea; conditions: 0 to 100 scale
Summary of the method: as §1

johnsongrass = format: in vivo, Sorghum halepense; conditions: 0 to 100 scale
Summary of the method: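 Greenhouse pots, one species each; non-phytotoxic solvent vehicle. Read-out: visual injury vs untreated, 13–21 DAT. Dash denotes no result.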

alfalfa = format: in vivo, Medicago ativa; conditions: 0 to 100 scale
Summary of the method: as §1

peanut = format: in vivo, Arachis hypoagaea; conditions: 0 to 100 scale
Summary of the method: as §1

sandbur = format: in vivo, Cenchrus echinatus; conditions: 0 to 100 scale
Summary of the method: as §1

itchgrass = format: in vivo, Rottboellia exaltata; conditions: 0 to 100 scale
Summary of the method: as §1

SMILES: CC(C)N1C(=O)COc2cc(F)c(-c3nn4c(c3Cl)CCCC4)cc21 [Compound 31]
- Plant response rating, Ann Bluegrass (annual bluegrass; POSTEMERGENCE, Rate 125 g/ha): 0
- Plant response rating, Ann Bluegrass (annual bluegrass; POSTEMERGENCE, Rate 250 g/ha): 0
- Plant response rating, Ann Bluegrass (annual bluegrass; PREEMERGENCE, Rate 125 g/ha): 0
- Plant response rating, Ann Bluegrass (annual bluegrass; PREEMERGENCE, Rate 250 g/ha): 0
- Plant response rating, Dallisgrass (dallisgrass; POSTEMERGENCE, Rate 125 g/ha): 0
- Plant response rating, Dallisgrass (dallisgrass; POSTEMERGENCE, Rate 250 g/ha): 0
- Plant response rating, Dallisgrass (dallisgrass; PREEMERGENCE, Rate 125 g/ha): 0
- Plant response rating, Dallisgrass (dallisgrass; PREEMERGENCE, Rate 250 g/ha): 0
- Plant response rating, Cmn Ragweed (common ragweed; POSTEMERGENCE, Rate 125 g/ha): 100
- Plant response rating, Cmn Ragweed (common ragweed; POSTEMERGENCE, Rate 250 g/ha): 100
- Plant response rating, Cmn Ragweed (common ragweed; PREEMERGENCE, Rate 125 g/ha): 0
- Plant response rating, Cmn Ragweed (common ragweed; PREEMERGENCE, Rate 250 g/ha): 70
- Plant response rating, Pit Morninglory (pitted morningglory; POSTEMERGENCE, Rate 125 g/ha): 50
- Plant response rating, Pit Morninglory (pitted morningglory; POSTEMERGENCE, Rate 250 g/ha): 50
- Plant response rating, Pit Morninglory (pitted morningglory; PREEMERGENCE, Rate 125 g/ha): 0
- Plant response rating, Pit Morninglory (pitted morningglory; PREEMERGENCE, Rate 250 g/ha): 0
- Plant response rating, Guineagrass (guineagrass; POSTEMERGENCE, Rate 125 g/ha): 0
- Plant response rating, Guineagrass (guineagrass; POSTEMERGENCE, Rate 250 g/ha): 0
- Plant response rating, Guineagrass (guineagrass; PREEMERGENCE, Rate 125 g/ha): 0
- Plant response rating, Guineagrass (guineagrass; PREEMERGENCE, Rate 250 g/ha): 100
- Plant response rating, Purple Nutsedge (purple nutsedge; POSTEMERGENCE): 10
- Plant response rating, Purple Nutsedge (purple nutsedge; PREEMERGENCE): 0
- Plant response rating, Smooth Crabgras (smooth crabgrass; POSTEMERGENCE, Rate 125 g/ha): 0
- Plant response rating, Smooth Crabgras (smooth crabgrass; POSTEMERGENCE, Rate 250 g/ha): 0
- Plant response rating, Smooth Crabgras (smooth crabgrass; PREEMERGENCE, Rate 125 g/ha): 0
- Plant response rating, Smooth Crabgras (smooth crabgrass; PREEMERGENCE, Rate 250 g/ha): 0
- Plant response rating, Goosegrass (goosegrass; POSTEMERGENCE, Rate 125 g/ha): 0
- Plant response rating, Goosegrass (goosegrass; POSTEMERGENCE, Rate 250 g/ha): 0
- Plant response rating, Goosegrass (goosegrass; PREEMERGENCE, Rate 125 g/ha): 0
- Plant response rating, Goosegrass (goosegrass; PREEMERGENCE, Rate 250 g/ha): 0
- Plant response rating, Yellow Nutsedge (yellow nutsedge; POSTEMERGENCE): 0
- Plant response rating, Yellow Nutsedge (yellow nutsedge; PREEMERGENCE): 0
- Plant response rating, Brdlf Sgnlgrass (broadleaf signalgrass; POSTEMERGENCE, Rate 125 g/ha): 0
- Plant response rating, Brdlf Sgnlgrass (broadleaf signalgrass; POSTEMERGENCE, Rate 250 g/ha): 0
- Plant response rating, Brdlf Sgnlgrass (broadleaf signalgrass; PREEMERGENCE, Rate 125 g/ha): 0
- Plant response rating, Brdlf Sgnlgrass (broadleaf signalgrass; PREEMERGENCE, Rate 250 g/ha): 0
- Plant response rating, Cmn Purslane (common purslane; POSTEMERGENCE, Rate 125 g/ha): 100
- Plant response rating, Cmn Purslane (common purslane; POSTEMERGENCE, Rate 250 g/ha): 80
- Plant response rating, Cmn Purslane (common purslane; PREEMERGENCE, Rate 125 g/ha): 0
- Plant response rating, Cmn Purslane (common purslane; PREEMERGENCE, Rate 250 g/ha): 100
- Plant response rating, Johnsongrass (johnsongrass; POSTEMERGENCE, Rate 125 g/ha): 0
- Plant response rating, Johnsongrass (johnsongrass; POSTEMERGENCE, Rate 250 g/ha): 0
- Plant response rating, Johnsongrass (johnsongrass; PREEMERGENCE, Rate 125 g/ha): 0
- Plant response rating, Johnsongrass (johnsongrass; PREEMERGENCE, Rate 250 g/ha): 0
- Plant response rating, Alfalfa Var. (alfalfa; POSTEMERGENCE, Rate 125 g/ha): 0
- Plant response rating, Alfalfa Var. (alfalfa; POSTEMERGENCE, Rate 250 g/ha): 10
- Plant response rating, Alfalfa Var. (alfalfa; PREEMERGENCE, Rate 125 g/ha): 0
- Plant response rating, Alfalfa Var. (alfalfa; PREEMERGENCE, Rate 250 g/ha): 30
- Plant response rating, Peanuts (peanut; POSTEMERGENCE, Rate 125 g/ha): 0
- Plant response rating, Peanuts (peanut; POSTEMERGENCE, Rate 250 g/ha): 0
- Plant response rating, Peanuts (peanut; PREEMERGENCE, Rate 125 g/ha): 0
- Plant response rating, Peanuts (peanut; PREEMERGENCE, Rate 250 g/ha): 0
- Plant response rating, S. Sandbur (sandbur; POSTEMERGENCE, Rate 125 g/ha): 0
- Plant response rating, S. Sandbur (sandbur; POSTEMERGENCE, Rate 250 g/ha): 0
- Plant response rating, S. Sandbur (sandbur; PREEMERGENCE, Rate 125 g/ha): 0
- Plant response rating, S. Sandbur (sandbur; PREEMERGENCE, Rate 250 g/ha): 0
- Plant response rating, Itchgrass (itchgrass; POSTEMERGENCE, Rate 125 g/ha): 0
- Plant response rating, Itchgrass (itchgrass; POSTEMERGENCE, Rate 250 g/ha): 20
- Plant response rating, Itchgrass (itchgrass; PREEMERGENCE, Rate 125 g/ha): 0
- Plant response rating, Itchgrass (itchgrass; PREEMERGENCE, Rate 250 g/ha): 70

SMILES: C#CCN1C(=O)COc2cc(F)c(-c3nn4c(c3Cl)CCCC4)cc21 [Compound 34]
- Plant response rating, Ann Bluegrass (annual bluegrass; POSTEMERGENCE, Rate 125 g/ha): 0
- Plant response rating, Ann Bluegrass (annual bluegrass; POSTEMERGENCE, Rate 250 g/ha): 0
- Plant response rating, Ann Bluegrass (annual bluegrass; PREEMERGENCE, Rate 125 g/ha): 0
- Plant response rating, Ann Bluegrass (annual bluegrass; PREEMERGENCE, Rate 250 g/ha): 50
- Plant response rating, Dallisgrass (dallisgrass; POSTEMERGENCE, Rate 125 g/ha): 0
- Plant response rating, Dallisgrass (dallisgrass; POSTEMERGENCE, Rate 250 g/ha): 0
- Plant response rating, Dallisgrass (dallisgrass; PREEMERGENCE, Rate 125 g/ha): 0
- Plant response rating, Dallisgrass (dallisgrass; PREEMERGENCE, Rate 250 g/ha): 80
- Plant response rating, Cmn Ragweed (common ragweed; POSTEMERGENCE, Rate 125 g/ha): 70
- Plant response rating, Cmn Ragweed (common ragweed; POSTEMERGENCE, Rate 250 g/ha): 100
- Plant response rating, Cmn Ragweed (common ragweed; PREEMERGENCE, Rate 125 g/ha): 0
- Plant response rating, Cmn Ragweed (common ragweed; PREEMERGENCE, Rate 250 g/ha): 0
- Plant response rating, Pit Morninglory (pitted morningglory; POSTEMERGENCE, Rate 125 g/ha): 30
- Plant response rating, Pit Morninglory (pitted morningglory; POSTEMERGENCE, Rate 250 g/ha): 50
- Plant response rating, Pit Morninglory (pitted morningglory; PREEMERGENCE, Rate 125 g/ha): 0
- Plant response rating, Pit Morninglory (pitted morningglory; PREEMERGENCE, Rate 250 g/ha): 30
- Plant response rating, Guineagrass (guineagrass; POSTEMERGENCE, Rate 125 g/ha): 0
- Plant response rating, Guineagrass (guineagrass; POSTEMERGENCE, Rate 250 g/ha): 0
- Plant response rating, Guineagrass (guineagrass; PREEMERGENCE, Rate 125 g/ha): 0
- Plant response rating, Guineagrass (guineagrass; PREEMERGENCE, Rate 250 g/ha): 0
- Plant response rating, Purple Nutsedge (purple nutsedge; POSTEMERGENCE): 20
- Plant response rating, Purple Nutsedge (purple nutsedge; PREEMERGENCE): 0
- Plant response rating, Smooth Crabgras (smooth crabgrass; POSTEMERGENCE, Rate 125 g/ha): 0
- Plant response rating, Smooth Crabgras (smooth crabgrass; POSTEMERGENCE, Rate 250 g/ha): 0
- Plant response rating, Smooth Crabgras (smooth crabgrass; PREEMERGENCE, Rate 125 g/ha): 0
- Plant response rating, Smooth Crabgras (smooth crabgrass; PREEMERGENCE, Rate 250 g/ha): 80
- Plant response rating, Goosegrass (goosegrass; POSTEMERGENCE, Rate 125 g/ha): 0
- Plant response rating, Goosegrass (goosegrass; POSTEMERGENCE, Rate 250 g/ha): 0
- Plant response rating, Goosegrass (goosegrass; PREEMERGENCE, Rate 125 g/ha): 0
- Plant response rating, Goosegrass (goosegrass; PREEMERGENCE, Rate 250 g/ha): 30
- Plant response rating, Yellow Nutsedge (yellow nutsedge; POSTEMERGENCE): 0
- Plant response rating, Yellow Nutsedge (yellow nutsedge; PREEMERGENCE): 0
- Plant response rating, Brdlf Sgnlgrass (broadleaf signalgrass; POSTEMERGENCE, Rate 125 g/ha): 0
- Plant response rating, Brdlf Sgnlgrass (broadleaf signalgrass; POSTEMERGENCE, Rate 250 g/ha): 0
- Plant response rating, Brdlf Sgnlgrass (broadleaf signalgrass; PREEMERGENCE, Rate 125 g/ha): 0
- Plant response rating, Brdlf Sgnlgrass (broadleaf signalgrass; PREEMERGENCE, Rate 250 g/ha): 0
- Plant response rating, Cmn Purslane (common purslane; POSTEMERGENCE, Rate 125 g/ha): 100
- Plant response rating, Cmn Purslane (common purslane; POSTEMERGENCE, Rate 250 g/ha): 100
- Plant response rating, Cmn Purslane (common purslane; PREEMERGENCE, Rate 125 g/ha): 0
- Plant response rating, Cmn Purslane (common purslane; PREEMERGENCE, Rate 250 g/ha): 100
- Plant response rating, Johnsongrass (johnsongrass; POSTEMERGENCE, Rate 125 g/ha): 0
- Plant response rating, Johnsongrass (johnsongrass; POSTEMERGENCE, Rate 250 g/ha): 0
- Plant response rating, Johnsongrass (johnsongrass; PREEMERGENCE, Rate 125 g/ha): 0
- Plant response rating, Johnsongrass (johnsongrass; PREEMERGENCE, Rate 250 g/ha): 0
- Plant response rating, Alfalfa Var. (alfalfa; POSTEMERGENCE, Rate 125 g/ha): 40
- Plant response rating, Alfalfa Var. (alfalfa; POSTEMERGENCE, Rate 250 g/ha): 60
- Plant response rating, Alfalfa Var. (alfalfa; PREEMERGENCE, Rate 125 g/ha): 0
- Plant response rating, Alfalfa Var. (alfalfa; PREEMERGENCE, Rate 250 g/ha): 100
- Plant response rating, Peanuts (peanut; POSTEMERGENCE, Rate 125 g/ha): 30
- Plant response rating, Peanuts (peanut; POSTEMERGENCE, Rate 250 g/ha): 0
- Plant response rating, Peanuts (peanut; PREEMERGENCE, Rate 125 g/ha): 0
- Plant response rating, Peanuts (peanut; PREEMERGENCE, Rate 250 g/ha): 0
- Plant response rating, S. Sandbur (sandbur; POSTEMERGENCE, Rate 125 g/ha): 0
- Plant response rating, S. Sandbur (sandbur; POSTEMERGENCE, Rate 250 g/ha): 0
- Plant response rating, S. Sandbur (sandbur; PREEMERGENCE, Rate 125 g/ha): 0
- Plant response rating, S. Sandbur (sandbur; PREEMERGENCE, Rate 250 g/ha): 0
- Plant response rating, Itchgrass (itchgrass; POSTEMERGENCE, Rate 125 g/ha): 0
- Plant response rating, Itchgrass (itchgrass; POSTEMERGENCE, Rate 250 g/ha): 0
- Plant response rating, Itchgrass (itchgrass; PREEMERGENCE, Rate 125 g/ha): 0
- Plant response rating, Itchgrass (itchgrass; PREEMERGENCE, Rate 250 g/ha): 20
